Measurements from US20260041744A1, “Methods for Treating Pompe Disease” (Amicus Therapeutics, Inc., priority 2022, published 2026).
“Also recorded” adds a separate entry of the source.

Assays:
[1] = human, in vivo
From the text: Blood sampling for plasma GAA protein and miglustat concentrations were taken for cohort 1 (ERT-experienced) and cohort 3 (ERT-naïve) only. To prevent any undue burden on patients, blood sampling for PK was not performed for non-ambulatory patients (cohort 2) and, due to similarity to cohort 1, those in cohort 4.

[2] = system: adults with Pompe disease; assay: Study ATB200-02 (20 mg/kg cipaglucosidase alfa IV + 260 mg miglustat): 6MWT (6MWD, % predicted 6MWD); type: in vivo, human;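 also: Open-label Phase I/II trial, ambulatory cohorts only, values are changes from baseline or counts relative to the baseline walk test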
Method: The change from baseline (CFBL) in 6MWD, % predicted sitting FVC, manual muscle test (MMT) and biomarkers—urine glucose tetrasaccharide (Hex4) and serum creatine kinase (CK)—were assessed at regular intervals.
The 4 cohorts in the study are as follows: • Cohort 1: ERT-experienced (2 to 6 years) ambulatory subjects (11 subjects) • Cohort 2: ERT-experienced (≥2 years) non-ambulatory subjects (6 subjects) • Cohort 3: ERT-naïve ambulatory subjects (6 subjects)· • Cohort 4: ERT-experienced (≥7 years) ambulatory subjects (6 subjects)
In Study ATB200-02, motor function was evaluated in all ambulatory subjects (ie, Cohorts 1, 3, and 4) (Table 23, FIGS. 46A-46D).

[3] = system: 4MU-a-Glucoside hydrolysis (GAA activity); assay: GAA enzyme activity by 4MU-a-Glucoside hydrolysis after PAP treatment; type: biochemical, human; conditions: PAP 18 hours
Method: Removal of phosphoesters mono- and bis-M6P was completed by the enzyme purple acid phosphatase (PAP). PAP hydrolyzes phosphate esters and anhydrides. […] Cipaglucosidase alfa was treated with PAP for 18 hours, and alglucosidase alfa in the same reaction conditions but without PAP addition was used as a mock-treated control. PAP treatment results in complete removal of the bis-M6P peak and nearly all of the mono-M6P peak from the cipaglucosidase alfa LC-FLD chromatogram. Additional peaks are clearly observed in the neutral high mannose glycan region resulting from the removal of phosphates from mono- and bis-phosphorylated high mannose glycans.

adult subjects with LOPD [4] = assay: Study ATB200-07 (OLE of PROPEL): 6MWD and % predicted 6MWD; type: in vivo, human; conditions: Study ATB200-03/07, excluding the outlier
From the text: (§1) The study doses and schedule are maintained from Study ATB200-03.
(§2) Efficacy data are presented in this summary as change from the baseline of Study ATB200-03 (OLE-ES Population).

ATB200 = ATB200 (Homo sapiens, UniProt P10253); assay: Thermostability assay using SYPRO Orange
[5] = system: normal and Pompe fibroblast cell lines; assay: Cellular uptake of rhGAA into fibroblasts (16-hr incubation, internalized GAA by 4MU-α-Glucoside hydrolysis); type: cell-based, human
Method: The relative cellular uptake of ATB200 and LUMIZYME® rhGAA were compared using normal and Pompe fibroblast cell lines. Comparisons involved 5-100 nM of ATB200 according to the disclosure with 10-500 nM conventional rhGAA product LUMIZYME®. After 16-hr incubation, external rhGAA was inactivated with TRIS base and cells were washed 3-times with PBS prior to harvest. Internalized GAA measured by 4MU-α-Glucoside hydrolysis and was graphed relative to total cellular protein and the results appear in FIGS. 11A-11C.
ATB200 was also shown to be efficiently internalized into cells. […] ATB200 saturates cellular receptors at about 20 nM, while about 250 nM of LUMIZYME® is needed to saturate cellular receptors.

Gaa KO mice [6] = assay: Muscle fiber size (minimum Feret's diameter) in quadriceps, 12 biweekly injections; type: in vivo, mouse; conditions: 20 mg/kg, 12 biweekly bolus injections
Method: FIG. 78 is a graph showing the effect of long-term cipaglucosidase alfa administration (20 mg/kg, 12 biweekly bolus injections) versus alglucosidase alfa on muscle fiber size by mean minimum fiber diameter (FD) in Gaa KO mouse quadriceps.
Gaa mice, like patients with Pompe disease, show a decrease in muscle fiber size as a consequence of muscle atrophy.

Gaa KO mice [7] = assay: Single fiber analysis (LAMP1/LC3 co-immunofluorescence, white gastrocnemius); type: in vivo, mouse; conditions: single fibers
From the text: FIG. 17 depicts co-immunofluorescent staining of LAMP1 (green) (see for example, “B”) and LC3 (red) (see, for example, “A”) in single fibers isolated from the white gastrocnemius of Gaa KO mice treated with a vehicle, alglucosidase alfa, or ATB200. “C” depicts clearance of autophagic debris and absence of enlarged lysosome. A minimum of 30 fibers were examined from each animal.
As a result, a significant portion of muscle fibers analyzed (36-60%) from ATB200-treated mice appeared normal or near-normal.

[8] = system: adults with Pompe disease; assay: Study ATB200-02: sitting % predicted FVC
Method: Four cohorts of patients with Pompe disease were enrolled in the ATB200-02 study: • Cohort 1: ERT-experienced, aged 18-65 years, with 2-6 years prior ERT with 20 mg/kg alglucosidase alfa every 2 weeks (n=11) • Cohort 2: Non-ambulatory ERT-experienced, aged 18-65 years, with ≥2 years prior ERT with 20 mg/kg alglucosidase alfa every 2 weeks (n=6)· • Cohort 3: ERT-naïve, aged 18-65 years (n=6). • Cohort 4: ERT-experienced, aged 18-75 years, with ≥7 years prior ERT with 20 mg/kg alglucosidase alfa every 2 weeks (n=6)
The change from baseline (CFBL) in 6MWD, % predicted sitting FVC, manual muscle test (MMT) and biomarkers—urine glucose tetrasaccharide (Hex4) and serum creatine kinase (CK)—were assessed at regular intervals. Data with up to 36 months of follow-up in ERT-experienced and ERT-naïve patients is provided herein. […] Due to the staggered timing of patient enrollment, the number of patients with data currently available decreases at later time-points in this ongoing study.

[9] = system: Pompe patient fibroblasts; assay: Cellular uptake into Pompe patient fibroblasts (20 nM rhGAA, 18-hr); type: cell-based, human
Method: The relative cellular uptake into Pompe patient fibroblasts of dephosphorylated cipaglucosidase alfa compared to mock-treated cipaglucosidase alfa and mock-treated alglucosidase alfa was assessed. Comparisons at a concentration of 20 nM of rhGAA was used to mimic the interstitial concentration of cipaglucosidase alfa that crosses into tissues, as shown in FIG. 77A. After an 18-hr incubation for enzyme uptake, cells were washed for 2 hours, harvested, lysed, and then processed for GAA activity and western blot analysis. Internalized GAA measured by 4MU-a-Glucoside hydrolysis and was graphed relative to total cellular protein and the results appear in FIG. 77B.
However, cell uptake of PAP-treated cipaglucosidase alfa is abolished.

[10] = Cipaglucosidase alfa pharmacokinetics in ERT-experienced adult patients with LOPD; type: in vivo, human
animals = conditions: in vivo
From the text: It is not known whether miglustat is secreted in breast milk. A risk to newborns/breastfed infants cannot be ruled out. The developmental and health benefits of breastfeeding should be considered, as well as the clinical need for the mother to receive co-administration therapy with cipaglucosidase alfa and miglustat, and any adverse reactions experienced by the breastfed child potentially related to the co-administration of cipaglucosidase alfa and miglustat or the underlying maternal condition. In some embodiments, breastfeeding is not allowed while taking cipaglucosidase alfa and miglustat. There are no clinical data on the effects of co-administration therapy of cipaglucosidase alfa and miglustat on fertility.

CIMPR [11] = target: T1, CIMPR (Homo sapiens, UniProt P11717); assay: CIMPR Overlay Assay (far-western blot); type: binding
Method: The CIMPR Overlay Assay is a variation on a far-western blot where proteins are separated on an SDS-PAGE, transferred to a nitrocellulose membrane, and incubated with purified CIMPR in the place of a primary antibody as in a conventional western blot. Binding of CIMPR to M6P-containing glycans on rhGAA proteins is then visualized by an anti-CIMPR antibody.

CIMPR [12] = target: T1, CIMPR; assay: CIMPR plate binding assay
Method: In addition to having a greater percentage of rhGAA that can bind to the CIMPR, it is important to understand the quality of that interaction. LUMIZYME® and ATB200 receptor binding was determined using a CIMPR plate binding assay. Briefly, CIMPR-coated plates were used to capture GAA. Varying concentrations of rhGAA were applied to the immobilized receptor and unbound rhGAA was washed off. The amount of remaining rhGAA was determined by GAA activity.
N-glycan analysis via MALDI-TOF mass spectrometry confirmed that on average each ATB200 molecule contains at least one natural bis-M6P N-glycan structure.

adult subjects with LOPD [13] = assay: Study ATB200-07 (OLE): sitting % predicted FVC; type: in vivo, human; conditions: Study ATB200-03/07, excluding the outlier
From the text: as §1, §2

[14] = ERT-experienced, Study ATB200-02, Cohort 1 and 4 combined
[15] = ERT-naïve, Study ATB200-02, Cohort 3
[16] = ERT-experienced, Study ATB200-02
[17] = 20 mg/kg in combination with Miglustat 260 mg

T1 sequence (P11717 41-2491, species assumed): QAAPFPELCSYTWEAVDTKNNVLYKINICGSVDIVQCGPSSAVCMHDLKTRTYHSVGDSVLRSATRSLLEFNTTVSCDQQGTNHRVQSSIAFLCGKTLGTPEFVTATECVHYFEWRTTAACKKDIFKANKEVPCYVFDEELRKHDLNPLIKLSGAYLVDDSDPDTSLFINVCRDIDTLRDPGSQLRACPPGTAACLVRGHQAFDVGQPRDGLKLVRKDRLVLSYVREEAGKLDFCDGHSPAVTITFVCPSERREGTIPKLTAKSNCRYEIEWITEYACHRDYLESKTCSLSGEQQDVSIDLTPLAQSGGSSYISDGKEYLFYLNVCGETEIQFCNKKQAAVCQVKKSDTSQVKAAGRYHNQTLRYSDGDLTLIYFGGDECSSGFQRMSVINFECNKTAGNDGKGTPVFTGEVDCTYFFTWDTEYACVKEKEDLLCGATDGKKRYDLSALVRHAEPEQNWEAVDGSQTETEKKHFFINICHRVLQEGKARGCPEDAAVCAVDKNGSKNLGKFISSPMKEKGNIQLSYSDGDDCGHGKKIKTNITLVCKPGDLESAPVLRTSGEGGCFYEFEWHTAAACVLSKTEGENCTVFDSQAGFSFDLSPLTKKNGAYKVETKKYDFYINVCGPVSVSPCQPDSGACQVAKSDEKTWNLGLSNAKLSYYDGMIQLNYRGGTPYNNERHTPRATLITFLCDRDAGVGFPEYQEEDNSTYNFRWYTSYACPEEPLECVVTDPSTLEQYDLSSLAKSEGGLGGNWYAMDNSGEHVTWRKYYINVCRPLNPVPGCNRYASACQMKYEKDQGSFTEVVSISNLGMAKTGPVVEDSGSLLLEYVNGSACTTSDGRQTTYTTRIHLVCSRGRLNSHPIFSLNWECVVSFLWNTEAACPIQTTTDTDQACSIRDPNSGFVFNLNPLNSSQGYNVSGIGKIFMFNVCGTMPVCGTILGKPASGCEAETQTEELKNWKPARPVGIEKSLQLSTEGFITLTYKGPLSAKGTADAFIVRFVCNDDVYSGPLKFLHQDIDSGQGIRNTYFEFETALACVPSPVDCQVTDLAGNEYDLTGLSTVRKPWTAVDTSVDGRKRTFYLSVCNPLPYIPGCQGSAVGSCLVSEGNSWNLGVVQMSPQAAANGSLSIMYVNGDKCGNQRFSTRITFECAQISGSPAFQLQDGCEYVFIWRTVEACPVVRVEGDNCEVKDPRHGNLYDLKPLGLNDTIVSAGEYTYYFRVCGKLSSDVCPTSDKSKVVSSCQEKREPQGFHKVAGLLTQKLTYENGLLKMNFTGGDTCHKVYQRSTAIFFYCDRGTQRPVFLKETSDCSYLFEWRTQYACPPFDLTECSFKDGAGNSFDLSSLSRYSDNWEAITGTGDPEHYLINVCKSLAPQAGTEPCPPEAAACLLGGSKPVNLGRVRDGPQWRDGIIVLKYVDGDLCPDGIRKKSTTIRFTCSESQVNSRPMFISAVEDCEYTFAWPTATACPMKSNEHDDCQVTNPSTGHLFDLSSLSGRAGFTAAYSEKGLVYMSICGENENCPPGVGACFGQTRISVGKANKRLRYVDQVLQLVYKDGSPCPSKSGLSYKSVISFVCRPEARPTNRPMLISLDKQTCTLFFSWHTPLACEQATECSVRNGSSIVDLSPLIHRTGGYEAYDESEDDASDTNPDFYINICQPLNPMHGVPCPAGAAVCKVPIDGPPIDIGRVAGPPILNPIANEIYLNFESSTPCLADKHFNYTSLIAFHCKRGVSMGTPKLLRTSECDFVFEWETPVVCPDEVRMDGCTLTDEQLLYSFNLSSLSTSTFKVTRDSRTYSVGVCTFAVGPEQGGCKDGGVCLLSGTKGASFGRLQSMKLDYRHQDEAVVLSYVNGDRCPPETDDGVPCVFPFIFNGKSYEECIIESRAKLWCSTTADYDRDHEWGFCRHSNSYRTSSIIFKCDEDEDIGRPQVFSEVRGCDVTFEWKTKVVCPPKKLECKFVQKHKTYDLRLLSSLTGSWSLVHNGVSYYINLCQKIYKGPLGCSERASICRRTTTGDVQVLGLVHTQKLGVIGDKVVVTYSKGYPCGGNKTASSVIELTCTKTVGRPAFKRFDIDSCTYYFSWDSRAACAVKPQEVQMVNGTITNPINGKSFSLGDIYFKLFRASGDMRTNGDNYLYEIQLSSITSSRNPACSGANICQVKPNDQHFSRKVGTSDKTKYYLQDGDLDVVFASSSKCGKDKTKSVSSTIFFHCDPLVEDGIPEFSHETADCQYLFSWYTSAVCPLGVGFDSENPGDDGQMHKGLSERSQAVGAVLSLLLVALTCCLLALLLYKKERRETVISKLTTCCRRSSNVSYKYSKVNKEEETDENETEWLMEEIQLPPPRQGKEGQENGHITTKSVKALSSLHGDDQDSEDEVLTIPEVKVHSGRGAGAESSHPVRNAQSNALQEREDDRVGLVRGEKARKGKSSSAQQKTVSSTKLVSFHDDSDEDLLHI

In the case of “ATB200: recombinant human acid α-glucosidase with a high content of N-glycans bearing mono-M6P and bis-M6P, produced from GA-ATB200 CHO cell line”, the “median time of peak signature peptide T09 concentrations (tmax)” value [1] is reported as “approximately 4 hours”, the “6MWD Baseline, Mean” value [2, 14] is reported as 393.5 and the “6MWD CFBL M12 (W 52) Mean” value [2, 14] is reported as 33.5. The “6MWD CFBL M24 (W 104) Mean” value [2, 14] was 25.2, the “6MWD Baseline, Mean” value [2, 15] was 396.0 and the “6MWD CFBL M12 (W 52) Mean” value [2, 15] was 57.0. For the same substance, the “6MWD CFBL M24 (W 104) Mean” value [2, 15] was 54.4, the “enzyme activity after PAP treatment” value [3] was “retaining the enzyme activity” and the “6MWD Baseline, Mean” value (adult subjects with LOPD [4]; ERT-experienced) was 342.4. For the same substance, the “6MWD CFBL M12 (W 52) Mean” value (adult subjects with LOPD [4]; ERT-experienced) was 16.3, the “6MWD CFBL M24 (W 104) Mean” value (adult subjects with LOPD [4]; ERT-experienced) was 14.2 and the “6MWD Baseline, Mean” value (adult subjects with LOPD [4]; ERT-naïve) was 393.6. For the same substance, the “6MWD CFBL M12 (W 52) Mean” value (adult subjects with LOPD [4]; ERT-naïve) was 33.4, the “6MWD CFBL M24 (W 104) Mean” value (adult subjects with LOPD [4]; ERT-naïve) was 38.8 and the Tm (ATB200; pH 5.2) was 67.3 °C. For the same substance, the Tm (ATB200; pH 7.4) was 56.2 °C, the Tm (ATB200; pH 7.4 + 10 μM miglustat) was 61.6 °C and the Tm (ATB200; pH 7.4 + 30 μM miglustat) was 62.9 °C. The Tm (ATB200; pH 7.4 + 100 μM miglustat) was 66.0 °C, the “uptake efficiency constant (Kuptake)” value ([5]; extrapolated from uptake curves) was 2-3 nm and the “internalization into fibroblasts” value ([5]; normal and Pompe fibroblast cells) was “internalized to a greater degree than the conventional rhGAA product LUMIZYME®”. The “rhGAA concentration that saturates cellular receptors” value ([5]; normal and Pompe fibroblasts) was “about 20 nM”, the “muscle fiber size vs alglucosidase alfa” value (Gaa KO mice [6]) was “significantly improved muscle fiber size” and the “Fibers with Normal or Near-normal Appearance” value (Gaa KO mice [7]) was 36-60%. The “Lysosome Enlargement” value (Gaa KO mice [7]) was “dramatically decreased lysosome size; also recorded: Dramatic size”, the “% Predicted FVC Baseline Mean” value [8, 16] was 57.4 % predicted and the “% Predicted FVC CFBL M12 (W 52) Mean” value [8, 16] was −1.2 % predicted. The “% Predicted FVC CFBL M24 (W 104) Mean” value [8, 16] was 1.0 % predicted, the “% Predicted FVC Baseline Mean” value [8, 15] was 57.2 % predicted and the “% Predicted FVC CFBL M12 (W 52) Mean” value [8, 15] was 3.2 % predicted. The “% Predicted FVC CFBL M24 (W 104) Mean” value [8, 15] was 4.7 % predicted, the “cellular uptake into Pompe fibroblasts” value [9] was “better cellular uptake compared to alfaglucosidase alfa” and the “AUC0-inf, mean” value [10, 17] was 1812 µg·h/mL. For the same substance, the “Cmax, mean” value [10, 17] was 345 µg/mL, the “AUC0-inf, mean” value ([10]; 20 mg/kg without Miglustat) was 1410 µg·h/mL and the “Cmax, mean” value ([10]; 20 mg/kg without Miglustat) was 325 µg/mL. The “excretion in milk” value (animals) was “excretion of cipaglucosidase alfa in milk”, the “fertility, preclinical data” value (animals) was “did not reveal any significant adverse reactions” and the “CIMPR binding in overlay assay” value (CIMPR [11]) was “binds with high affinity to CIMPR as shown by an intense band”. For the same substance, the “CIMPR binding compared with LUMIZYME” value (CIMPR [12]; CIMPR-coated plates) was “bound to CIMPR significantly better than LUMIZYME®”, the Kd (CIMPR [12]; M6P receptor plate binding assays) was 2 to 4 nM and the “% Predicted FVC Baseline Mean” value (adult subjects with LOPD [13]; ERT-experienced) was 67.7 % predicted. For the same substance, the “% Predicted FVC CFBL M12 (W 52) Mean” value (adult subjects with LOPD [13]; ERT-experienced) was 0.1 % predicted, the “% Predicted FVC CFBL M24 (W 104) Mean” value (adult subjects with LOPD [13]; ERT-experienced) was −0.6 % predicted and the “% Predicted FVC Baseline Mean” value (adult subjects with LOPD [13]; ERT-naïve) was 80.2 % predicted. For the same substance, the “% Predicted FVC CFBL M12 (W 52) Mean” value (adult subjects with LOPD [13]; ERT-naïve) was −4.7 % predicted and the “% Predicted FVC CFBL M24 (W 104) Mean” value (adult subjects with LOPD [13]; ERT-naïve) was −4.8 % predicted.
